The values that follow are results of earlier work, collected in patent US11439593B2, “Composition for treating onychomycosis” (NCP NewCare Products GmbH, priority 2017, dated 2022).

Structures are written as SMILES. Like-named read-outs stand apart in the source and are kept apart here.

On to `c1ccc(-c2ccc(C(c3ccccc3)n3ccnc3)cc2)cc1` (centres unmarked) [bifonazole], for which the “stability in acidic environment” value (pH of about 5) is “stable”.

`Cc1cc(C2CCCCC2)n(O)c(=O)c1` [ciclopirox]: the “stability in acidic environment” value (pH of about 3) is “stable”.

As for `Clc1ccccc1C(c1ccccc1)(c1ccccc1)n1ccnc1` [clotrimazole], under “pH of about 5”, the “stability in acidic environment” value is reported as “stable”.

Regarding `Clc1ccc(COC(Cn2ccnc2)c2ccc(Cl)cc2Cl)c(Cl)c1` (centres unmarked) [miconazole], the “stability in acidic environment” value (pH of about 3) is “stable”.

Turning to `CN(C/C=C/C#CC(C)(C)C)Cc1cccc2ccccc12` [terbinafine], for the setting “pH of about 3”, the “stability in acidic environment” value is “stable”.
